Converted amounts (≈) assume the structure as drawn.
Tests used:
S. schleiferi c.i. = test: MIC/MBC broth microdilution, S. schleiferi; assay type: cell-based, Staphylococcus schleiferi
Outline: (§1)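 Bacteria inoculated at about 10^5 CFU/mL in BHI broth and incubated 18 h at 37 °C with serial dilutions of peptidomimetics, NCCLS microdilution format. MBC taken as lowest concentration leaving no more than 3 colonies (≥99.9% kill); MIC as lowest concentration without obvious growth (≥90% of untreated); solvent controls included.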

[1] = tested on: K. pneumoniae ATCC 700603; test: MIC/MBC broth microdilution, K. pneumoniae; assay type: cell-based
Outline: as §1

P. aeruginosa ATCC 10145 = test: MIC/MBC broth microdilution, P. aeruginosa; assay type: cell-based
Outline: as §1

[2] = tested on: immortalized human HaCaT keratinocytes; test: XTT cell proliferation assay, keratinocytes; assay type: cell-based; conditions: XTT, 48 and 72 h, 0.01–150 μg/mL
Outline: (§2)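 Proliferation was read as XTT absorbance at 490 nm after 4 h of reagent incubation, following 48 or 72 h of peptide exposure in serum-free HG-DMEM (37 °C, 5% CO2). The 72 h arm included a half-medium change with second peptide dose at 48 h. Significance by Mann–Whitney U, p ≤ 0.05.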

S. mutans c.i. = test: MIC/MBC broth microdilution, S. mutans; assay type: cell-based, Streptococcus mutans
Outline: as §1

E. faecalis c.i. = test: MIC/MBC broth microdilution, E. faecalis; assay type: cell-based, Enterococcus faecalis
Outline: as §1

E. coli ATCC 25922 = test: MIC/MBC broth microdilution, E. coli; assay type: cell-based, Escherichia coli
Outline: as §1

S. agalactiae ATCC 27956 = test: MIC/MBC broth microdilution, S. agalactiae; assay type: cell-based, Streptococcus agalactiae; conditions: S. agalactiae
Outline: as §1

S. aureus ATCC 43300 = test: MIC/MBC broth microdilution, S. aureus; assay type: cell-based, Staphylococcus aureus; conditions: S. aureus
S. pyogenes ATCC 19615 = test: MIC/MBC broth microdilution, S. pyogenes; assay type: cell-based, Streptococcus pyogenes; conditions: S. pyogenes
Outline: as §1

[3] = tested on: human dermal fibroblast cell line (46BR.1N); test: XTT cell proliferation assay, fibroblasts; assay type: cell-based; conditions: XTT, 48 and 72 h, 0.01–150 μg/mL
Outline: as §2

P. vulgaris ATCC 6896 = test: MIC/MBC broth microdilution, P. vulgaris; assay type: cell-based, Proteus vulgaris
Outline: as §1

[4] = Hydrophobicity by reverse-phase chromatography; assay type: physicochemical; conditions: acetonitrile content in the mobile phase at the retention time
Text: Reverse-phase chromatography was employed to assess the hydrophobicity characteristics of the peptidomimetics. Hydrophobicity was quantified by determining the acetonitrile content in the mobile phase at the retention time of a peptidyl derivative (Table S2). The least hydrophobic compound (40% acetonitrile) was A-198, which aligns with the calculations of hydrophobicity by SwissADME and pkCSM (Table ). Next in the hydrophobicity sequence were A-197, A-220, A-219, A-174, and A-221, eluting with 42.5-43.9% of acetonitrile. Then there were followed by […], and A-179, with the acetonitrile percentage of 44.8-49.8. The compounds A-176, A-20, A-152, A-134, and A-210 needed over 50% of acetonitrile to be eluted from the column.

fibroblasts (46BR.1N) = test: LDH cytotoxicity test, fibroblasts; assay type: cell-based; conditions: 48 h
Outline: (§3)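 Cytotoxicity as LDH release after 48 h serum-free treatment (50, 100, 150 μg/mL peptidomimetics) of 46BR.1N fibroblasts or HaCaT keratinocytes seeded at 5000 per well. Absorbance 450 nm; untreated set as 0% and Triton X-100 1% as maximal release; Mann–Whitney U test, p ≤ 0.05.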

[5] = tested on: immortalized human keratinocytes (HaCaT); test: LDH cytotoxicity test, keratinocytes; assay type: cell-based; conditions: 48 h
Outline: as §3

S. cohnii c.i. = test: MIC/MBC broth microdilution, S. cohnii; assay type: cell-based, Staphylococcus cohnii
Outline: as §1

CC(C)C[C@H](NC(=O)[C@H](CCCNC(=N)N)NC(=O)OCc1ccccc1)C(=O)N[C@H](CN)C(C)C [Compound A-197]
MIC (S. schleiferi c.i.; H2O): 256 µg/mL (≈ 506 µM) | MIC (S. schleiferi c.i.; water additive DMSO): 256 µg/mL (≈ 506 µM) | MIC (S. schleiferi c.i.; water additive EtOH): 256 µg/mL (≈ 506 µM) | MIC ([1]; H2O): > 512 µg/mL | MIC ([1]; water additive DMSO): > 512 µg/mL | MIC ([1]; water additive EtOH): > 512 µg/mL | MIC (P. aeruginosa ATCC 10145; H2O): > 512 µg/mL | MIC (P. aeruginosa ATCC 10145; water additive DMSO): > 512 µg/mL | MIC (P. aeruginosa ATCC 10145; water additive EtOH): > 512 µg/mL | effect on proliferation, in words [2]: did not exert any negative impact | MBC (S. mutans c.i.; H2O): 512 µg/mL (≈ 1010 µM) | MIC (S. mutans c.i.; H2O): 256 µg/mL (≈ 506 µM) | MBC (S. mutans c.i.; water additive EtOH): 256 µg/mL (≈ 506 µM) | MIC (E. faecalis c.i.; H2O): > 512 µg/mL | MIC (E. faecalis c.i.; water additive DMSO): > 512 µg/mL | MIC (E. faecalis c.i.; water additive EtOH): > 512 µg/mL | MIC (E. coli ATCC 25922; H2O): > 512 µg/mL | MIC (E. coli ATCC 25922; water additive DMSO): > 512 µg/mL | MIC (E. coli ATCC 25922; water additive EtOH): > 512 µg/mL | MIC (S. agalactiae ATCC 27956; H2O): > 512 µg/mL | MIC (S. agalactiae ATCC 27956; water additive DMSO): > 512 µg/mL | MIC (S. agalactiae ATCC 27956; water additive EtOH): > 512 µg/mL | MIC (S. aureus ATCC 43300; H2O): > 512 µg/mL | MIC (S. aureus ATCC 43300; water additive DMSO): > 512 µg/mL | MIC (S. aureus ATCC 43300; water additive EtOH): > 512 µg/mL | MIC (S. pyogenes ATCC 19615; H2O): > 512 µg/mL | MIC (S. pyogenes ATCC 19615; water additive DMSO): > 512 µg/mL | MIC (S. pyogenes ATCC 19615; water additive EtOH): > 512 µg/mL | effect on proliferation, in words [3]: did not exert any negative impact | MIC (P. vulgaris ATCC 6896; H2O): > 512 µg/mL | MIC (P. vulgaris ATCC 6896; water additive DMSO): > 512 µg/mL | MIC (P. vulgaris ATCC 6896; water additive EtOH): > 512 µg/mL | % AcCN (acetonitrile required for elution from the column) [4]: 42.5% | cytotoxicity (LDH), in words (fibroblasts (46BR.1N); 50-150 μg/mL): no cytotoxicity | concentration at which cytotoxic effect starts (fibroblasts (46BR.1N); LDH): > 150 µg/mL | cytotoxicity (LDH), in words ([5]; 50-150 μg/mL): no cytotoxicity | concentration at which cytotoxic effect starts ([5]; LDH): > 150 µg/mL | MIC (S. cohnii c.i.; H2O): > 512 µg/mL | MIC (S. cohnii c.i.; water additive DMSO): > 512 µg/mL | MIC (S. cohnii c.i.; water additive EtOH): > 512 µg/mL

From PMC12332667, “Role of Structural Modifications in Peptidomimetic Compounds as Potential Antimicrobial Agents against Staphylococcus aureus and Streptococcus pyogenes: Balancing Bioavailability, Safety, and Antimicrobial Activity” (ACS Omega, 2025)
